Data taken from PubChem BioAssay AID1963867 (Molecular Pharmacology Branch, DTP, NCI, 2024).

System: KRAS-mutant PDC tumor spheroid with HUVEC/MSC, viability
Assay: Anticancer human tumor 327498-153-R-J2-PDC patient-derived uterine carcinosarcoma cell line growth inhibition [KRAS2]
Settings: for viability, T/C: stronger effect = lower value; active = viability on the fitted dose curve at most 10% of control; inactive = the rest
In short: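 Combination screen of spheroid viability in tumor-cell co-cultures with endothelial (HUVEC) and mesenchymal stem cell stroma. Each agent was tested in half-log dilutions, topping at clinical Cmax or at 10 microM without a known Cmax.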

[1] = curve of first compound, second compound 0.1 µM
[2] = curve of first compound, second compound 0.316 µM
[3] = curve of first compound, second compound 1 µM
[4] = curve of first compound, second compound 3.16 µM
[5] = second compound 0.1 µM, first compound 0.0316 µM
[6] = second compound 0.1 µM, first compound 0.1 µM
[7] = second compound 0.1 µM, first compound 0.316 µM
[8] = second compound 0.1 µM, first compound 1 µM
[9] = second compound 0.1 µM, first compound 3.16 µM
[10] = second compound 0.1 µM, first compound 10 µM
[11] = second compound 0.316 µM, first compound 0.0316 µM
[12] = second compound 0.316 µM, first compound 0.1 µM
[13] = second compound 0.316 µM, first compound 0.316 µM
[14] = second compound 0.316 µM, first compound 1 µM
[15] = second compound 0.316 µM, first compound 3.16 µM
[16] = second compound 0.316 µM, first compound 10 µM
[17] = second compound 1 µM, first compound 0.0316 µM
[18] = second compound 1 µM, first compound 0.1 µM
[19] = second compound 1 µM, first compound 0.316 µM
[20] = second compound 1 µM, first compound 1 µM
[21] = second compound 1 µM, first compound 3.16 µM
[22] = second compound 1 µM, first compound 10 µM
[23] = second compound 3.16 µM, first compound 0.0316 µM
[24] = second compound 3.16 µM, first compound 0.1 µM
[25] = second compound 3.16 µM, first compound 0.316 µM
[26] = second compound 3.16 µM, first compound 1 µM
[27] = second compound 3.16 µM, first compound 3.16 µM
[28] = second compound 3.16 µM, first compound 10 µM
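Also: spheroids exposed to agents for seven days before reading.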
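For viability, T/C in this document: 100% = DMSO vehicle wells so lower means fewer viable cells.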

C=CC(=O)N1CCN(c2nc(OCC3CCCN3C)nc3c2CCN(c2cccc4cccc(C)c24)C3)CC1CC#N (stereo unspecified)
inactive: viability, T/C (compound 0.316 µM) 57.6% [middle of 16 runs] | viability, T/C (compound 1 µM) 49.2% [middle of 17 runs]

CCN1CCN(Cc2ccc(Nc3ncc(F)c(-c4cc(F)c5nc(C)n(C(C)C)c5c4)n3)nc2)CC1
> 1000 nM: IC50 (curve of compound)
inactive: viability, T/C (compound 0.00316 µM) 88.7% [middle of 5 runs] | viability, T/C (compound 0.01 µM) 81.7% [middle of 5 runs] | viability, T/C (compound 0.0316 µM) 65.9% [middle of 5 runs] | viability, T/C (compound 0.1 µM) 61% [middle of 5 runs] | viability, T/C (compound 0.316 µM) 59.6% [middle of 5 runs] | viability, T/C (compound 1 µM) 58.9% [middle of 5 runs]

COc1cc2nccc(Oc3ccc(NC(=O)C4(C(=O)Nc5ccc(F)cc5)CC4)cc3)c2cc1OC + CNCc1ccccc1-c1csc(C(C)Nc2nc(C)nc3cc(OC)c(OC)cc23)c1
1670 nM: IC50 [3]
< 31.6 nM: IC50 [4] | IC50 (curve of first compound, second compound 10 µM)
active: viability, T/C [10] 0.95% | viability, T/C [16] 0.58% | viability, T/C [22] 0.3% | viability, T/C [23] 0.12% | viability, T/C [24] 0.17% | viability, T/C [25] 1.01% | viability, T/C [26] 0.1% | viability, T/C [27] 0.06% | viability, T/C [28] 0.15% | viability, T/C (second compound 10 µM, first compound 0.0316 µM) 0.12% | viability, T/C (second compound 10 µM, first compound 0.1 µM) 0.11% | viability, T/C (second compound 10 µM, first compound 0.316 µM) 0.34% | viability, T/C (second compound 10 µM, first compound 1 µM) 0.34% | viability, T/C (second compound 10 µM, first compound 3.16 µM) 0.71% | viability, T/C (second compound 10 µM, first compound 10 µM) 0.81%
inactive: viability, T/C [5] 79.7% | viability, T/C [6] 80.7% | viability, T/C [7] 88.2% | viability, T/C [8] 85.9% | viability, T/C [9] 29.3% | viability, T/C [11] 83% | viability, T/C [12] 72.5% | viability, T/C [13] 77.7% | viability, T/C [14] 73.3% | viability, T/C [15] 31.8% | viability, T/C [17] 72.8% | viability, T/C [18] 73.5% | viability, T/C [19] 69.7% | viability, T/C [20] 69.5% | viability, T/C [21] 25.8%
2040 nM: IC50 [1]
1910 nM: IC50 [2]

Cn1nccc1Nc1nccc(-c2cc3c(s2)C(C)(C)N(CCN2CCOCC2)C3=O)n1 + C=CC(=O)N1CCN(c2nc(OCC3CCCN3C)nc3c2CCN(c2cccc4cccc(C)c24)C3)CC1CC#N
active: viability, T/C [23] 0.15% | viability, T/C [24] 0.17% | viability, T/C [25] 0.15% | viability, T/C [26] 0.16% | viability, T/C [27] 0.54% | viability, T/C [28] 0.21%
< 31.6 nM: IC50 [2] | IC50 [3] | IC50 [4]
422 nM: IC50 (curve of first compound, second compound 0.0316 µM)
227 nM: IC50 [1]
inactive: viability, T/C (second compound 0.0316 µM, first compound 0.0316 µM) 62.5% | viability, T/C (second compound 0.0316 µM, first compound 0.1 µM) 54.6% | viability, T/C (second compound 0.0316 µM, first compound 0.316 µM) 55.6% | viability, T/C (second compound 0.0316 µM, first compound 1 µM) 25.2% | viability, T/C (second compound 0.0316 µM, first compound 3.16 µM) 40.4% | viability, T/C (second compound 0.0316 µM, first compound 10 µM) 34.7% | viability, T/C [5] 60.2% | viability, T/C [6] 62.1% | viability, T/C [7] 45.5% | viability, T/C [8] 33% | viability, T/C [9] 36.2% | viability, T/C [10] 28.8% | viability, T/C [11] 42.9% | viability, T/C [12] 45% | viability, T/C [13] 37.6% | viability, T/C [14] 33.6% | viability, T/C [15] 31.1% | viability, T/C [16] 27.6% | viability, T/C [17] 39.6% | viability, T/C [18] 31.1% | viability, T/C [19] 29.7% | viability, T/C [20] 33.3% | viability, T/C [21] 30.3% | viability, T/C [22] 21.3%

CC(=O)OC12COC1CC(O)C1(C)C(=O)C(O)C3=C(C)C(OC(=O)C(O)C(NC(=O)OC(C)(C)C)c4ccccc4)CC(O)(C(OC(=O)c4ccccc4)C21)C3(C)C (stereo unspecified)
< 10 nM: IC50 (curve of compound)
active: viability, T/C (compound 0.01 µM) 8.03% [middle of 5 runs] | viability, T/C (compound 0.0316 µM) 6.44% [middle of 5 runs] | viability, T/C (compound 0.1 µM) 6.83% [middle of 5 runs] | viability, T/C (compound 0.316 µM) 7.35% [middle of 5 runs] | viability, T/C (compound 1 µM) 10.6% [middle of 5 runs] | viability, T/C (compound 3.16 µM) 12.8% [middle of 5 runs]
